Test results reported in patent US11339171B2, “MDM2 inhibitors” (Gan & Lee Pharmaceuticals, priority 2017, dated 2022).

Tests used:
[1] = test system: human osteosarcoma cell line SJSA-1; assay: Inhibition of proliferation of human osteosarcoma cell line SJSA-1 (DAPI staining, In Cell Analyzer); conditions: labels are Example numbers; the compounds with S-configuration are meant
MDM2 = molecular target: T1, MDM2 (Homo sapiens, UniProt Q00987); assay: Inhibition test of MDM2-P53 (GST-MDM2, Biotin-P53, Anti-GST-Tb, SA-XL665); type: binding
T1 construct: made in house
T1 sequence (Q00987 whole entry): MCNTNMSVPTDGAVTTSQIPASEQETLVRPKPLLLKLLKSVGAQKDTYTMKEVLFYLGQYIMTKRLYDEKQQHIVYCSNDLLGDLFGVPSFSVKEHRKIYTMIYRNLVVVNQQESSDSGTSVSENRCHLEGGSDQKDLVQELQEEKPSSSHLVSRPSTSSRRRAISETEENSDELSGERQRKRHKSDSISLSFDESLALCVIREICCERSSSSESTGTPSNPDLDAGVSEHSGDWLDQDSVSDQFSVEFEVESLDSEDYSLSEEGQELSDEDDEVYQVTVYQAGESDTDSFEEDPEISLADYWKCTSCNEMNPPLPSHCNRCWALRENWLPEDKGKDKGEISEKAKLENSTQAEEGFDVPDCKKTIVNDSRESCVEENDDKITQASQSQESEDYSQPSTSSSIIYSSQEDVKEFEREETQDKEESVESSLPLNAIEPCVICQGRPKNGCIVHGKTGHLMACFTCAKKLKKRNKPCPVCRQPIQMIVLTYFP
Procedure, shortened: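 HTRF-type assay using 4 nM GST-MDM2 (final), Biotin-P53, SA-XL665 and anti-GST-Tb in PBS with 0.1% BSA, 5 mM DTT and 1 mM AEBSF. Compounds in 5-fold serial dilutions over twelve points; incubation 90 min at 25° C with shaking before plate-reader read-out.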

| SMILES | inhibitory effect on human osteosarcoma cell line SJSA-1 compared with positive control compound HDM201 [1] | IC50 (MDM2) [nM] |
| --- | --- | --- |
| COc1cc(F)ccc1-c1nc2c(n1C(C)C)C1(C(=O)Nc3cc(Cl)ccc31)N(c1cc(Cl)ccc1C)C2=O (stereo not shown) [Example 4, 6-chloro-5′-(5-chloro-2-methylphenyl)-2′-(4-fluoro-2-methoxyphenyl)-3′-isopropyl-3′H-spiro[dihydroindole-3,4′-pyrrolo[3,4-d]imidazole]-2,6′(5′H)-dione] | better |  |
| COc1ccc(-c2nc3c(n2C(C)C)C2(C(=O)Nc4cc(Cl)ccc42)N(c2cc(Cl)ccc2C)C3=O)c(OC)c1 (stereo not shown) [Example 9, 6-chloro-5′-(5-chloro-2-methylphenyl)-2′-(2,4-dimethoxyphenyl)-3′-isopropyl-3′H-spiro[dihydroindole-3,4′-pyrrolo[3,4-d]imidazole]-2,6′(5′H)-dione] | better |  |
| COc1ccc(C#N)cc1-c1nc2c(n1C(C)C)C1(C(=O)Nc3cc(Cl)ccc31)N(c1cc(Cl)ccc1C)C2=O (stereo not shown) [Example 13, 3-(6-chloro-5′-(5-chloro-2-methylphenyl)-3′-isopropyl-2,6′-dioxo-5′,6′-dihydro-3′H-spiro[dihydroindole-3,4′-pyrrolo[3,4-d]imidazole]-2′-yl)-4-methoxybenzonitrile] | better |  |
| COc1cc(N(C)C)ccc1-c1nc2c(n1C(C)C)C1(C(=O)Nc3cc(Cl)ccc31)N(c1cc(Cl)ccc1C)C2=O (stereo not shown) [Example 23, 6-chloro-5′-(5-chloro-2-methylphenyl)-2′-(4-(dimethylamino)-2-methoxyphenyl)-3′-isopropyl-3′H-spiro[dihydroindole-3,4′-pyrrolo[3,4-d]imidazole]-2,6′(5′H)-dione] | better |  |
| COc1cc(C)ccc1-c1nc2c(n1C(C)C)C1(C(=O)Nc3cc(Cl)ccc31)N(c1cc(Cl)ccc1C)C2=O (stereo not shown) [Example 24, 6-chloro-5′-(5-chloro-2-methylphenyl)-3′-isopropyl-2′-(2-methoxy-4-methylphenyl)-3′H-spiro[dihydroindole-3,4′-pyrrolo[3,4-d]imidazole]-2,6′(5′H)-dione] | better |  |
| CNc1ccc(-c2nc3c(n2C(C)C)C2(C(=O)Nc4cc(Cl)ccc42)N(c2cc(Cl)ccc2C)C3=O)c(OC)c1 (stereo not shown) [Example 25] | better |  |
| COc1cc(C(C)C)ccc1-c1nc2c(n1C(C)C)C1(C(=O)Nc3cc(Cl)ccc31)N(c1cc(Cl)ccc1C)C2=O (stereo not shown) [Example 32, 6-chloro-5′-(5-chloro-2-methylphenyl)-3′-isopropyl-2′-(4-isopropyl-2-methoxyphenyl)-3′H-spiro[dihydroindole-3,4′-pyrrolo[3,4-d]imidazole]-2,6′(5′H)-dione] | better |  |
| CCc1ccc(-c2nc3c(n2C(C)C)C2(C(=O)Nc4cc(Cl)ccc42)N(c2cc(Cl)ccc2C)C3=O)c(OC)c1 (stereo not shown) [Example 33, 6-chloro-5′-(5-chloro-2-methylphenyl)-2′-(4-ethyl-2-methoxyphenyl)-3′-isopropyl-3′H-spiro[dihydroindole-3,4′-pyrrolo[3,4-d]imidazole]-2,6′(5′H)-dione] | better |  |
| COc1cc(OC)c(-c2nc3c(n2C(C)C)C2(C(=O)Nc4cc(Cl)ccc42)N(c2cc(Cl)ccc2C)C3=O)cc1C (stereo not shown) [Example 83, 6-chloro-5′-(5-chloro-2-methylphenyl)-2′-(2,4-dimethoxy-5-methylphenyl)-3′-isopropyl-3′H-spiro[dihydroindole-3,4′-pyrrolo[3,4-d]imidazole]-2,6′(5′H)-dione] | better |  |
| COc1cc(C2CC2)ccc1-c1nc2c(n1C(C)C)C1(C(=O)Nc3cc(Cl)ccc31)N(c1cc(Cl)ccc1C)C2=O (stereo not shown) [Example 86, 6-chloro-5′-(5-chloro-2-methylphenyl)-2′-(4-cyclopropyl-2-methoxyphenyl)-3′-isopropyl-3′H-spiro[dihydroindole-3,4′-pyrrolo[3,4-d]imidazole]-2,6′(5′H)-dione] | better |  |
| COc1cc(C(C)C)ccc1-c1nc2c(n1C(C)C)C1(C(=O)Nc3cc(Cl)ccc31)N(c1cc(Cl)cnc1C)C2=O (stereo not shown) [Example 89, 6-chloro-5′-(5-chloro-2-methylpyridin-3-yl)-3′-isopropyl-2′-(4-isopropyl-2-methoxyphenyl)-3′H-spiro[dihydroindole-3,4′-pyrrolo[3,4-d]imidazole]-2,6′(5′H)-dione] | better |  |
| COc1cc(N(C)C)c(C)cc1-c1nc2c(n1C(C)C)C1(C(=O)Nc3cc(Cl)ccc31)N(c1cc(Cl)ccc1C)C2=O (stereo not shown) [Example 91, 6-chloro-5′-(5-chloro-2-methylphenyl)-2′-(4-(dimethylamino)-2-methoxy-5-methylphenyl)-3′-isopropyl-3′H-spiro[dihydroindole-3,4′-pyrrolo[3,4-d]imidazole]-2,6′(5′H)-dione] | better |  |
| CCN(C)c1ccc(-c2nc3c(n2C(C)C)C2(C(=O)Nc4cc(Cl)ccc42)N(c2cc(Cl)ccc2C)C3=O)c(OC)c1 (stereo not shown) [Example 99, 6-chloro-5′-(5-chloro-2-methylphenyl)-2′-(4-(ethyl(methyl)amino)-2-methoxyphenyl)-3′-isopropyl-3′H-spiro[dihydroindole-3,4′-pyrrolo[3,4-d]imidazole]-2,6′(5′H)-dione] | better |  |
| COc1cc(C(C)(C)C)ccc1-c1nc2c(n1C(C)C)C1(C(=O)Nc3cc(Cl)ccc31)N(c1cc(Cl)ccc1C)C2=O (stereo not shown) [Example 101, 2′-(4-(tert-butyl)-2-methoxyphenyl)-6-chloro-5′-(5-chloro-2-methylphenyl)-3′-isopropyl-3′H-spiro[dihydroindole-3,4′-pyrrolo[3,4-d]imidazole]-2,6′(5′H)-dione] | better |  |
| COc1cc(C2CC2)ncc1-c1nc2c(n1C(C)C)[C@]1(C(=O)Nc3cc(Cl)ccc31)N(c1cc(F)cc(Cl)c1)C2=O [Example R-176, (R)-6-chloro-5′-(3-chloro-5-fluorophenyl)-2′-(6-cyclopropyl-4-methoxypyridin-3-yl)-3′-isopropyl-3′H-spiro[dihydroindole-3,4′-pyrrolo[3,4-d]imidazole]-2,6′(5′H)-dione] |  | 321 |
| COc1ncc(-c2nc3c(n2C(C)C)[C@@]2(C(=O)Nc4cc(Cl)ccc42)N(c2ccc(OC)c(Cl)c2)C3=O)c(OC)n1 [Example S-48, (S)-6-chloro-5′-(3-chloro-4-methoxyphenyl)-2′-(2,4-dimethoxypyrimidin-5-yl)-3′-isopropyl-3′H-spiro[dihydroindole-3,4′-pyrrolo[3,4-d]imidazole]-2,6′(5′H)-dione] |  | 1.46 |
| COc1ncc(-c2nc3c(n2C(C)C)[C@@]2(C(=O)Nc4cc(Cl)ccc42)N(c2cc(C)ccc2C)C3=O)c(OC)n1 [Example S-56, (S)-6-chloro-2′-(2,4-dimethoxypyrimidin-5-yl)-5′-(2,5-dimethylphenyl)-3′-isopropyl-3′H-spiro[dihydroindole-3,4′-pyrrolo[3,4-d]imidazole]-2,6′(5′H)-dione] |  | 5.19 |
| COc1ncc(-c2nc3c(n2C(C)C)[C@@]2(C(=O)Nc4cc(Cl)ccc42)N(c2ccc(C(N)=O)c(Cl)c2)C3=O)c(OC)n1 [Example S-60, (S)-2-chloro-4-(6-chloro-2′-(2,4-dimethoxypyrimidin-5-yl)-3′-isopropyl-2,6′-dioxo-3′,6′-dihydro-5′H-spiro[dihydroindole-3,4′-pyrrolo[3,4-d]imidazole]-5′-yl)benzamide] |  | 4.81 |
| COc1cc(OC)c(-c2nc3c(n2C(C)C)[C@@]2(C(=O)Nc4cc(Cl)ccc42)N(c2ccc(C(N)=O)c(Cl)c2)C3=O)cn1 [Example S-65, (S)-2-chloro-4-(6-chloro-2′-(4,6-dimethoxypyridin-3-yl)-3′-isopropyl-2,6′-dioxo-3′,6′-dihydro-5′H-spiro[dihydroindole-3,4′-pyrrolo[3,4-d]imidazole]-5′-yl)benzamide] |  | 4.04 |
| COc1cc(C(C)C)ccc1-c1nc2c(n1C(C)C)[C@@]1(C(=O)Nc3cc(Cl)ccc31)N(c1cccc(Cl)c1)C2=O [Example S-93, (S)-6-chloro-5′-(3-chlorophenyl)-3′-isopropyl-2′-(4-isopropyl-2-methoxyphenyl)-3′H-spiro[dihydroindole-3,4′-pyrrolo[3,4-d]imidazole]-2,6′(5′H)-dione] |  | 3.89 |
| COc1cc(F)c(-c2nc3c(n2C(C)C)[C@@]2(C(=O)Nc4cc(Cl)ccc42)N(c2cc(Cl)ccc2C)C3=O)c(OC)c1 [Example S-130, (S)-6-chloro-5′-(5-chloro-2-methylphenyl)-2′-(2-fluoro-4,6-dimethoxyphenyl)-3′-isopropyl-3′H-spiro[dihydroindole-3,4′-pyrrolo[3,4-d]imidazole]-2,6′(5′H)-dione] |  | 5.59 |
| COc1ncc(-c2nc3c(n2C(C)C)[C@@]2(C(=O)Nc4cc(Cl)ccc42)N(c2cc(Cl)ccc2C#N)C3=O)c(OC)n1 [Example S-151, (S)-4-chloro-2-(6-chloro-2′-(2,4-dimethoxypyrimidin-5-yl)-3′-isopropyl-2,6′-dioxo-3′,6′-dihydro-5′H-spiro[dihydroindole-3,4′-pyrrolo[3,4-d]imidazole]-5′-yl)benzonitrile] |  | 1410 |
